The values below come from publication PMC2363545 (British Journal of Cancer, 2000).

As usually defined, the Km is the substrate concentration at which the rate is half of its maximum.

Where “and” joins values, the source holds several entries; their conditions need not be identical. Identical values can stand only once.

The test system of data set [1] is breast cancer cell lines.
In data set [2] the test system is breast cancer cell lines. The settings on record: cited from earlier work.
Another data set relates to anal carcinoma. The settings on record: in vivo.
The conditions of data set [3]: in vivo.
The subject of a further data set is advanced breast cancer. The settings on record: in vivo.
The conditions of data set [4]: in vivo. This is another data set of the same source.
Data set [5] concerns NQO2-transfected rodent or non-transfected human tumor cell lines.
In a further data set the test system is VB6 and H357 SCC cells. Type of data set: cell-based, human.
For data set [6], the system named is advanced head and neck cancer. The settings on record: in vivo.
Data set [7] relates to topoisomerase II expression in NIH3T3 cells.
The test system of another data set is SCLC. As to conditions: in vivo.
A further data set deals with metastatic breast cancer. The settings on record: in vivo.
The next data set concerns metastatic RCC. Set-up: species or system human. The settings on record: in vivo, po.
For data set [8], the target named is reduced-folate carrier (RFC) (Homo sapiens, UniProt P41440). The settings on record: read-out: Km for the RFC.
The target of another data set is DNA-topoisomerase I (Homo sapiens, UniProt P11387). The data set is classed as biochemical.
A further data set relates to cervix cancer. The settings on record: in vivo.
A further data set has as its system carcinoma of cervix. As to conditions: in vivo.
For data set [9] the following is noted: in vivo. This is another data set of the same source.
In data set [10] the test system is liver metastases (murine T50/80 breast). The arrangement: species or system mice. As to conditions: mouse, in vivo.
For data set [11] the following is noted: mouse, in vivo.
The conditions of data set [12]: in vivo. This is another data set of the same source.
The conditions of data set [13]: in vivo. This is another data set of the same source.

Sequence of reduced-folate carrier (RFC) (P41440 whole entry): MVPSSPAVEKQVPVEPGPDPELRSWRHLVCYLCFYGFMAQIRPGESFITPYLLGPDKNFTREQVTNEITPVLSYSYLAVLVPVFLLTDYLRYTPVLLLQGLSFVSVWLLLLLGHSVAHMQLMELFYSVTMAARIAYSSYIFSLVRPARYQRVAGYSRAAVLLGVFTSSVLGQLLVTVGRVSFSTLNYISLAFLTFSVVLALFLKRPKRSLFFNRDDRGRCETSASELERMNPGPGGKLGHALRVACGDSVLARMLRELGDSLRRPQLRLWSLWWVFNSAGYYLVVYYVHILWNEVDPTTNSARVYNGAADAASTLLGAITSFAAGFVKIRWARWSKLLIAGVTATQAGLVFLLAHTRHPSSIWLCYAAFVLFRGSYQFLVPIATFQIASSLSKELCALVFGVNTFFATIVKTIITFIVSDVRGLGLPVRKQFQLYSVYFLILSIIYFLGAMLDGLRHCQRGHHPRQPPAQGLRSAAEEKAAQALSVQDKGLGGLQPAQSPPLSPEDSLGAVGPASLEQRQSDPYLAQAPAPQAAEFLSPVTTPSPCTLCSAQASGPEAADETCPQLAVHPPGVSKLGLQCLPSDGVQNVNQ
Sequence of DNA-topoisomerase I (P11387 whole entry): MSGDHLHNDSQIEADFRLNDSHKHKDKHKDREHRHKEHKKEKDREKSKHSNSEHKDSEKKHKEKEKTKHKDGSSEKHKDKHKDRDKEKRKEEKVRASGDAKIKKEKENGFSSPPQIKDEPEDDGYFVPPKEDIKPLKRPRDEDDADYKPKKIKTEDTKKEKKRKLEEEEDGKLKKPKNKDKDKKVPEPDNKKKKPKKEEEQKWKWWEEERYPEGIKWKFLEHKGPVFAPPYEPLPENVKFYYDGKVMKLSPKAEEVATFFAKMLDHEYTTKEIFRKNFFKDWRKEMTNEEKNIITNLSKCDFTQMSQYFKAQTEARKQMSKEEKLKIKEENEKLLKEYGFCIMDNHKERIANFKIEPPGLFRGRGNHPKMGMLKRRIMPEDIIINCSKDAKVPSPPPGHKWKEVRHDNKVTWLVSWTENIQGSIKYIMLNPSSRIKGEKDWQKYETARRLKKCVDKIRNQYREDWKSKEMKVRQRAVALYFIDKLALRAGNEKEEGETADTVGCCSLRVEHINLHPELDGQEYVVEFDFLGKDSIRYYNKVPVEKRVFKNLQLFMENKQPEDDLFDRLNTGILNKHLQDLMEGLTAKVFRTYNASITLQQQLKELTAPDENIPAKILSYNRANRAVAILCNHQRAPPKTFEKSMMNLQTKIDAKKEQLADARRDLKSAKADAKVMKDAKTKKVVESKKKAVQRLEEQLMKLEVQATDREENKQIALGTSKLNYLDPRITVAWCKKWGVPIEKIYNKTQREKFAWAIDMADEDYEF

For `COc1cc2c(cc1OS(N)(=O)=O)CC[C@@H]1[C@@H]2CC[C@]2(C)C(=O)CC[C@@H]12` [2-MeOEMATE, 2-Methoxyestrone-3-O-Sulfamate], the “fold more potent than parent compounds” value with breast cancer cell lines [1] is given as over 10 fold. Also, the “G2/M arrest in breast cancer cells in vitro” value with breast cancer cell lines [2] is “induced G2/M arrest”. Also, the “effect on tubulin assembly” value in the data set on tubulin is given as “inhibited the ability of paclitaxel to promote tubulin assembly”.
Take `O=c1[nH]cc(F)c(=O)[nH]1` [5-FU]: in the data set with anal carcinoma, the PD is listed as 4%, the PR stood at 22%, the “acute skin toxicity grade 3” value was 96% and the “clinical CR” value is given as 74%. For the same compound, the Kelim in [3] is 3.7 0.8 hr-1.
Consider `CC(C)(C#N)c1cc(Cn2cncn2)cc(C(C)(C)C#N)c1` [AN], for which, in the data set with advanced breast cancer, the “OR (CR+PR)” value worked out at 29%; the “median TTP” value is 8.5 months and 10.7 months; the thromboembolic events came out at 4.5%; the vaginal bleeding is listed as 1.2%.
On to `NC(=O)c1cc(N2CC2)c([N+](=O)[O-])cc1[N+](=O)[O-]` [CB1954, 5-(aziridin-l-yl)-2,4-dinitrobenzamide], for which, in data set [4], the “drug unchanged in the urine” value is under 5%, the median elimination half-life came to 51 min, the “time serum levels greater than 0.1 µM” value is reported as “more than 4 hours” and the “time serum levels greater than 1 M” value was 2 h. In data set [4] (iv), the “maximum tolerated dose (MTD)” value came to 37.5 mg/m2. Moreover, the “increase in CB 1954 cytotoxicity in the presence of NRH” value in data set [5] is listed as 100-3000 fold.
In the case of `COc1c(C[C@@H](C)OC(=O)Oc2ccc(O)cc2)c2c3c(C[C@@H](C)OC(=O)c4ccccc4)c(OC)c(=O)c4c(O)cc(OC)c(c5c(OC)cc(O)c(c1=O)c52)c43` [Calphostin C], the “VB6 cell migration reduced to” value in the data set on VB6 and H357 SCC cells was 7.8%.
Take `C[C@]12CC[C@@H]3c4ccc(O)cc4CC[C@H]3[C@@H]1CC[C@@H]2O` [E2, Oestradiol]: in the data set on MCF-7, the “induction of integrin 1 expression” value turned out to be 1.7 fold and the “reduction of integrin 1 expression” value is listed as 29%.
Take `Oc1cccc(-c2c3nc(c(-c4cccc(O)c4)c4ccc([nH]4)c(-c4cccc(O)c4)c4nc(c(-c5cccc(O)c5)c5ccc2[nH]5)CC4)C=C3)c1` [Foscan]: in data set [6], the neurotoxicity result is “No specific neurotoxicity” and the tumour effect entry is reported as “consistent tumour necrosis”.
As for `CCOc1ccc(-c2nc3ccc(-c4nc5ccc(N6CCN(C)CC6)cc5[nH]4)cc3[nH]2)cc1` [Hoechst 33342], the “expression of top2 at confluence” value in [7] is “increased expression”.
Turning to `COc1cc2c(c(OC)c1OC)-c1ccc(O)cc1[C@@H](NC(C)=O)CC2` [N-acetylcolchinol], the “concentrations at which toxicity/antiproliferative effects occur” value in the data set with HUVECs was over 100 M.
`C[C@@H](O)[C@@H]1NC(=O)[C@H](CCCCN)NC(=O)[C@@H](Cc2c[nH]c3ccccc23)NC(=O)[C@H](Cc2ccccc2)NC(=O)[C@@H](NC(=O)[C@H](N)Cc2ccccc2)CSSC[C@@H](C(=O)N[C@H](CO)[C@@H](C)O)NC1=O` [Octreotide]: in the data set with SCLC, the neutropenic pyrexia is 9 % of treatment cycles.
For the compound `CC/C(=C(\c1ccccc1)c1ccc(OCCN(C)C)cc1)c1ccccc1` [TAM], in the data set with advanced breast cancer, the “OR (CR+PR)” value was determined as 27%; the “median TTP” value was 7.0 months and 6.4 months; the thromboembolic events stood at 7.6%; the vaginal bleeding is listed as 2.9%.
For the compound `CC(=O)O[C@@]12CO[C@@H]1C[C@H](O)[C@@]1(C)C(=O)[C@H](O)C3=C(C)[C@@H](OC(=O)[C@H](O)[C@@H](NC(=O)OC(C)(C)C)c4ccccc4)C[C@@](O)([C@@H](OC(=O)c4ccccc4)[C@H]21)C3(C)C` [TAX], in the data set with metastatic breast cancer, the median survival was found to be 204 days, the “patients requiring admission due to neutropenic sepsis” value was 40% and the patients showing response came out at 53%.
In the data set with metastatic RCC, `O=C1CCC(N2C(=O)c3ccccc3C2=O)C(=O)N1` (stereo not shown) [Thalidomide] showed a response rate of 10%.
Regarding `C#CCN(Cc1cc2c(=O)[nH]c(C)nc2cc1C)c1ccc(C(=O)N[C@@H](CCc2nnn[nH]2)C(=O)O)c(F)c1` [ZD9331], in data set [8], the Km is 1 to 2 µM.
With `CC[C@@]1(O)C(=O)OCc2c1cc1n(c2=O)Cc2cc3ccccc3nc2-1` [camptothecin], the “nicked DNA / cleavage” value on DNA-topoisomerase I is 90%.
As for `N.N.[Cl][Pt][Cl]` [cisplatin], in the data set on cervix cancer, the “grade 3 or severe (grade 4) neutropaenia” value came to 27%, the “some degree of neutropaenia” value is 70 % of patients and the thrombocytopaenia amounted to 12%. In the data set on carcinoma of cervix, the general malaise was 56%. Besides, the hypomagnesaemia in [9] is listed as 14 % of all chemotherapy cycles.
For `COc1ccc(/C=C\c2cc(OC)c(OC)c(OC)c2)cc1O` [combretastatin A4], the “average decrease in tumour volume” value in data set [10] came to 30%.
Turning to `COc1cc(/C=C/C(=O)CC(=O)/C=C/c2ccc(O)c(OC)c2)ccc1O` [curcumin, diferuloylmethane], the metabolism entry with hepatocytes is “metabolised to THC, HHC and HHCO”.
With `Cn1cnc2c(NCc3ccccc3)nc(NCCO)nc21` [olomoucine], the “correlation of PK parameters, combination vs alone (spearman r)” value in [11] turned out to be 0.90.
Turning to `CC[C@H](CO)Nc1nc(NCc2ccccc2)c2ncn(C(C)C)c2n1` [roscovitine], in data set [11], the “correlation of PK parameters, combination vs alone (spearman r)” value was 0.99; the “ranking of AUC and clearance” value was “highest AUC and the lowest clearance”. In the data set with colorectal cell lines, the “cross-resistance of HCT116/8FP cells” value is recorded as “no cross-resistance”.
Turning to `O=P(O)(O)C(O)(Cn1ccnc1)P(=O)(O)O` [zoledronate], the “proportion of apoptotic cells” value with MCF7 cells was “significant increase”.
Regarding carboplatin, in data set [12], the “Grade 1 reaction” value is recorded as 45 % of patients, the “HSR on rechallenge with a platinum compound” value was found to be 66%, the “grade II reaction” value is 25 % of patients and the “grade III reaction” value is 30 % of patients. In data set [12], the “incidence of HSR” value came to 10.5%; the “mean duration of HSR” value worked out at 44 min; the “mean time interval between initial exposure and HSR” value was 26.5 months; the “mean time of onset of symptoms” value is recorded as 14.5 min. Also, in [12], the “overall incidence of HSR” value is 4.5%. Further, in data set [13], the “AUC achieved, mean standard deviation” value is on record as 11420 % of target.
